One test concerns the target full-length human LSD1 (Homo sapiens (Human), UniProt O60341). The experiment in a line: In vitro enzyme inhibition assay LSD-1 (TR-FRET). As to conditions: H3K4me1-biotin peptide. The class given is biochemical. An outline of the steps: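 Demethylase activity of full-length human LSD1 was detected by TR-FRET after 1 hour incubation at room temperature. Excitation was at 320 nm, with emission at 615 nm and 665 nm. IC50 values were derived from the inhibition data.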
On the technique in general: In TR-FRET formats the signal depends on donor and acceptor labels being close together.

The test system of test [1] is CD11b expression in THP-1 (AML) cells. Kind of test: LSD1 CD11b cellular assay (flow cytometry). It is filed as cell-based. As to conditions: Homo sapiens, 96 h, THP-1 cells, 4 days. An outline of the steps: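 THP-1 cells were exposed to serially diluted compounds (0.2% DMSO final) for 4 days at 37 °C. CD11b expression was measured by flow cytometry with DAPI staining. The percent of CD11b-positive cells per concentration gave the IC50 curve.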

Test [2] concerns Kasumi-1 AML cancer cell line. Kind of test: Kasumi-1 AML cell line proliferation assay (Cell-MTS assay). As to conditions: Homo sapiens, Kasumi-1 cells, 168 hours. It is filed as cell-based. An excerpt: Colorimetric cellular assay to assess the ability of LSD-1 small molecule inhibitors to effect the proliferation of the established AML cancer cell line Kasumi-1.
This Cell-MTS assay is a 7-day plate based colorimetric assay which quantifies the amount of newly generated NADH in the presence and absence of test compound. These NADH levels are used as a proxy for the quantification of cancer cell proliferation.
The established cancer cell line Kasumi-1 with a verified p53 mutation were purchased from American Type Culture Collection (ATCC) and routinely passaged according to ATCC published protocols. For routine assay these cells were seeded at a density of 20,000 cells per 96-well. 24 hours after plating, cells received an 11 point dilution of test compound with final concentration ranges from 100 LM to 2.0 nM. Cells are incubated in the presence of compound for 168 hours at 37° C., 5% CO2. At the end of this compound incubation period, 80 μl of media is removed and 20 μL of CellTiter 96® AQueous Non-Radioactive Cell Proliferation Assay solution (Promega) is added. The cells are incubated until the OD490 is >0.6. IC50 values are calculated using the IDBS XLfit software package and include background subtracted OD490 values and normalization to DMSO controls.
Table 5 provides the Kasumi-1 cellular IC50 values of various substituted heterocyclic compounds disclosed herein.

Molecules are shown by their SMILES.

What is called IC50 is the concentration that inhibits the measured activity by half. Read a low IC50 as higher potency. As for `COc1ccc(-n2c(-c3ccc(C#N)c(F)c3)nc(C(=O)N3CCC[C@@H](N)C3)c2F)cc1F` [Example 67, 4-[4-[(3R)-3-Aminopiperidine-1-carbonyl]-5-fluoro-1-(3-fluoro-4-methoxyphenyl)imidazol-2-yl]-2-fluorobenzonitrile], the IC50 against full-length human LSD1 was less than 100 nM; in test [1], less than 100 nM; in test [2], no more than 100 nM. Regarding `COc1ccc(-n2c(-c3ccc(C#N)c(F)c3)nc(C(=O)N3CCC[C@@H](N)C3)c2C)cc1` [Example 12, 4-[4-[(3R)-3-aminopiperidine-1-carbonyl]-1-(4-methoxyphenyl)-5-methylimidazol-2-yl]-2-fluorobenzonitrile], in test [2], the IC50 is no more than 100 nM. As to `Cn1nc2ccc(-n3c(-c4ccc(C#N)c(F)c4)nc(C(=O)N4CCC[C@@H](N)C4)c3Cl)cc2c1Cl` [Example 76, 4-[4-[(3R)-3-Aminopiperidine-1-carbonyl]-5-chloro-1-(3-chloro-2-methylindazol-5-yl)imidazol-2-yl]-2-fluorobenzonitrile], the IC50 is less than 100 nM at full-length human LSD1, less than 100 nM in test [1] and no more than 100 nM in test [2]. In test [2], `Cc1c(C(=O)N2CC[C@H](N(C)C)C2)nc(-c2ccc(C#N)c(F)c2)n1-c1ccc2nn(C)cc2c1` [Example 94, 4-[4-[(3S)-3-(Dimethylamino)pyrrolidine-1-carbonyl]-5-methyl-1-(2-methylindazol-5-yl)imidazol-2-yl]-2-fluorobenzonitrile] gave an IC50 of no more than 100 nM.

In the case of `CN[C@H]1CCN(C(=O)c2nc(-c3ccc(C#N)c(F)c3)n(-c3ccc(OC)c(F)c3)c2C)C1` [Example 64, 2-Fluoro-4-[1-(3-fluoro-4-methoxyphenyl)-5-methyl-4-[(3S)-3-(methylamino)pyrrolidine-1-carbonyl]imidazol-2-yl]benzonitrile], the IC50 is less than 100 nM on full-length human LSD1, less than 100 nM in test [1] and no more than 100 nM in test [2].

For `COc1ccc(-n2c(-c3ccc(C#N)c(F)c3)nc(C(=O)N3CC[C@H](N)C3)c2C)cc1` [Example 14, 4-[4-[(3S)-3-aminopyrrolidine-1-carbonyl]-1-(4-methoxyphenyl)-5-methylimidazol-2-yl]-2-fluorobenzonitrile], the IC50 is less than 100 nM on full-length human LSD1, less than 100 nM in test [1] and no more than 100 nM in test [2]. Turning to `COc1ccc(-n2c(-c3ccc(C#N)c(F)c3)nc(C(=O)N3CC(CN)C3)c2C)cc1F` [Example 88, 4-[4-[3-(Aminomethyl)azetidine-1-carbonyl]-1-(3-fluoro-4-methoxyphenyl)-5-methylimidazol-2-yl]-2-fluorobenzonitrile], the IC50 in test [2] was no more than 100 nM. As to `Cn1nc2ccc(-n3cc(C(=O)N4CCC5(CCN5)C4)nc3-c3ccc(C#N)c(F)c3)cc2c1Cl` (centres unmarked) [Example 93, 4-[1-(3-Chloro-2-methylindazol-5-yl)-4-(1,7-diazaspiro[3.4]octane-7-carbonyl)imidazol-2-yl]-2-fluorobenzonitrile], the IC50 against full-length human LSD1 is less than 100 nM; in test [1] it was 100 to 1000 nM. For the molecule `Cn1cc2cc(-n3c(-c4ccc(C#N)c(F)c4)nc(C(=O)N4CCC[C@@H](N)C4)c3F)ccc2n1` [Example 77, 4-[4-[(3R)-3-Aminopiperidine-1-carbonyl]-5-fluoro-1-(2-methylindazol-5-yl)imidazol-2-yl]-2-fluorobenzonitrile], the IC50 (at full-length human LSD1; in test [1]) was less than 100 nM throughout. On to `Cc1c2cc(-n3c(-c4ccc(C#N)c(F)c4)nc(C(=O)N[C@@H]4CCCNC4)c3C)ccc2nn1C` [Example 104, 2-(4-Cyano-3-fluorophenyl)-1-(2,3-dimethylindazol-5-yl)-5-methyl-N-[(3R)-piperidin-3-yl]imidazole-4-carboxamide], for which the IC50 (on full-length human LSD1; in test [1]) was less than 100 nM each time. On to `Cc1c(C(=O)N2CCC3(CCN3)C2)nc(-c2ccc(C#N)c(F)c2)n1-c1ccc2c(cnn2C)c1` (centres unmarked) [Example 92, 4-[4-(1,7-Diazaspiro[3.4]octane-7-carbonyl)-5-methyl-1-(1-methylindazol-5-yl)imidazol-2-yl]-2-fluorobenzonitrile], for which the IC50 on full-length human LSD1 is less than 100 nM; in test [1], 100 to 1000 nM.

Turning to `COc1ccc(-c2c(-c3ccc(C#N)c(F)c3)cc(C(=O)N3CCC[C@@H](N)C3)n2C)cc1` [Example 2, 4-[5-(3-(R)-amino-piperidine-1-carbonyl)-2-(4-methoxy-phenyl)-1-methyl-1H-pyrrol-3-yl]-2-fluoro-benzonitrile], the IC50 (at full-length human LSD1; in test [1]) was less than 100 nM throughout. Take `COc1ccc(-c2c(-c3ccc(C#N)c(F)c3)cc(C(=O)N3CCC[C@@H](N)C3)n2CCO)cc1` [Example 8, 4-[5-(3-(R)-amino-piperidine-1-carbonyl)-1-(2-hydroxy-ethyl)-2-(4-methoxy-phenyl)-1H-pyrrol-3-yl]-2-fluoro-benzonitrile]: the IC50 (at full-length human LSD1; in test [1]) was less than 100 nM each time. With `CN[C@H]1CCCN(C(=O)c2nc(-c3ccc(C#N)c(F)c3)n(-c3ccc4nn(C)cc4c3)c2C)C1` [Example 97, 2-Fluoro-4-[5-methyl-4-[(3S)-3-(methylamino)piperidine-1-carbonyl]-1-(2-methylindazol-5-yl)imidazol-2-yl]benzonitrile], the IC50 (at full-length human LSD1; in test [1]) was less than 100 nM in each case. For the molecule `Cn1cc2cc(-c3c(-c4ccc(C#N)c(F)c4)cc(C(=O)N4CCC[C@@H](N)C4)n3CCCO)ccc2n1` [Example 34, (R)-4-(5-(3-aminopiperidine-1-carbonyl)-1-(3-hydroxypropyl)-2-(2-methyl-2H-indazol-5-yl)-1H-pyrrol-3-yl)-2-fluorobenzonitrile], the IC50 (on full-length human LSD1; in test [1]) was less than 100 nM throughout.

`COc1ccc(-n2c(-c3ccc(C#N)c(F)c3)nc(C(=O)N3CCC[C@@H](N)C3)c2C)cc1F` [Example 16, 4-[4-[(3R)-3-aminopiperidine-1-carbonyl]-1-(3-fluoro-4-methoxyphenyl)-5-methylimidazol-2-yl]-2-fluorobenzonitrile] displayed an IC50 in test [2] of no more than 100 nM. For `CN[C@H]1CCN(C(=O)c2cn(-c3ccc(OC)c(F)c3)c(-c3ccc(C#N)c(F)c3)n2)C1` [Example 65, 2-Fluoro-4-[1-(3-fluoro-4-methoxyphenyl)-4-[(3S)-3-(methylamino)pyrrolidine-1-carbonyl]imidazol-2-yl]benzonitrile], the IC50 (on full-length human LSD1; in test [1]) was less than 100 nM throughout. On to `Cc1c(C(=O)N(C)CCN)nc(-c2ccc(C#N)c(F)c2)n1-c1ccc2nn(C)cc2c1` [Example 44, N-(2-Aminoethyl)-2-(4-cyano-3-fluorophenyl)-N,5-dimethyl-1-(2-methylindazol-5-yl)imidazole-4-carboxamide], for which the IC50 (against full-length human LSD1; in test [1]) was less than 100 nM each time.

Turning to `COc1ccc(-n2cc(C(=O)N3CC[C@H](N)C3)nc2-c2ccc(C#N)c(F)c2)cc1F` [Example 20, 4-[4-[(3S)-3-aminopyrrolidine-1-carbonyl]-1-(3-fluoro-4-methoxyphenyl)imidazol-2-yl]-2-fluorobenzonitrile], the IC50 (against full-length human LSD1; in test [1]) was less than 100 nM throughout. With `CN[C@@H]1CCCN(C(=O)c2cn(-c3ccc4nn(C)c(Cl)c4c3)c(-c3ccc(C#N)c(F)c3)n2)C1` [Example 115, 4-[1-(3-Chloro-2-methylindazol-5-yl)-4-[(3R)-3-(methylamino)piperidine-1-carbonyl]imidazol-2-yl]-2-fluorobenzonitrile], the half-inhibitory concentration (IC50) (at full-length human LSD1; in test [1]) was less than 100 nM in each case. `CN1CCC[C@@H](NC(=O)c2cn(-c3ccc4nn(C)c(Cl)c4c3)c(-c3ccc(C#N)c(F)c3)n2)C1` [Example 59, 1-(3-Chloro-2-methylindazol-5-yl)-2-(4-cyano-3-fluorophenyl)-N-[(3R)-1-methylpiperidin-3-yl]imidazole-4-carboxamide]: the IC50 (on full-length human LSD1; in test [1]) was less than 100 nM throughout. As to `Cc1ccc(-c2c(-c3ccc(C#N)cc3)cc(C(=O)N3CCC[C@@H](N)C3)n2C)cc1` [Example 1, 4-[5-(3-(R)-amino-piperidine-1-carbonyl)-1-methyl-2-p-tolyl-1H-pyrrol-3-yl]-benzonitrile], the IC50 (against full-length human LSD1; in test [1]) was less than 100 nM throughout.

With `Cn1c(C(=O)N2CCC[C@@H](N)C2)cc(-c2ccc(C#N)c(F)c2)c1-c1ccc2c(c1)ncn2C` [Example 10, 4-[5-(3-(R)-amino-piperidine-1-carbonyl)-1-methyl-2-(1-methyl-1H-benzoimidazol-5-yl)-1H-pyrrol-3-yl]-2-fluoro-benzonitrile], the IC50 (at full-length human LSD1; in test [1]) was less than 100 nM throughout. Regarding `COc1ccc(-n2c(-c3ccc(C#N)c(F)c3)nc(C(=O)N3CC[C@H](N)C3)c2C)cc1F` [Example 18, 4-[4-[(3S)-3-aminopyrrolidine-1-carbonyl]-1-(3-fluoro-4-methoxyphenyl)-5-methylimidazol-2-yl]-2-fluorobenzonitrile], the IC50 in test [2] is no more than 100 nM.

These data come from patent US10626103B2, “Inhibitor of lysine specific demethylase-1” (CELGENE QUANTICEL RESEARCH, INC., priority 2014, dated 2020).
